The values below come from PMC6068598 (ACS Omega, 2018).

Data set [1] in a line: First-in-man PET brain uptake in healthy volunteers. The settings on record: for peak uptake, whole brain: initial perfusion phase, 1 min p.i., i.v. bolus, healthy volunteers.
The conditions of data set [2]: imidazolyl sulfoxide moiety; cited from earlier work.
Data set [3] relates to monoamino oxidase B. The following applies: no reference given; cited from earlier work.
Data set [4] concerns the target hTau-441 fibrils (Homo sapiens, UniProt P10636). Briefly: Inhibition of [3H]astemizole binding to synthetic hTau-441 fibrils.
The test system of data set [5] is monoamino oxidase A. The settings on record: cited from earlier work.

Chain of hTau-441 fibrils (P10636 1-441 isoform P10636-8): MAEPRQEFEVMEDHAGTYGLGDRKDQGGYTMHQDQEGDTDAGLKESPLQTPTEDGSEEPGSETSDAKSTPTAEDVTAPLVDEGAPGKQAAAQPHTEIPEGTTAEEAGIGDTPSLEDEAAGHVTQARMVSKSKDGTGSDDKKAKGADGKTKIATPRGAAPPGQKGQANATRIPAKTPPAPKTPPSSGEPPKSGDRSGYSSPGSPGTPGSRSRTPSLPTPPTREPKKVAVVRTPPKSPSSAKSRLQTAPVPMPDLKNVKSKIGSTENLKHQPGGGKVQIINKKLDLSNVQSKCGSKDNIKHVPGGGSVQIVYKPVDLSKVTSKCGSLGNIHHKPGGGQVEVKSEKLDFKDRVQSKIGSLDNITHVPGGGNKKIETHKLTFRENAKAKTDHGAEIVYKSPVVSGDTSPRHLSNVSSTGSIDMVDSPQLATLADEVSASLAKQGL

As for `Cc1c(OCC(F)(F)[18F])ccnc1C[S+]([O-])c1nc2ccccc2[nH]1` (centres unmarked) [[^18F]1, [^18F]lansoprazole], the “whole brain activity at 2 min p.i.” value in data set [1] (2 min p.i.) was “less than 1.0 % i.D”. Also, the “whole brain activity after 90 min” value in data set [1] (after 90 min) was “below 0.5%”. Further, in data set [1], the “peak uptake, whole brain” value is reported as 2.5–3.5 % i.D. The “pKa (N–H-acidity)” value in data set [2] is approximately 4.

For the compound `CNc1ccc(-c2ccc3cc(OC[C@H](O)C[18F])ccc3n2)cn1` [[^18F]THK-5351], the “affinity for monoamino oxidase B” value in data set [3] is reported as “high affinity”.

For `Cc1c(OCC(F)(F)[18F])ccnc1C[S+]([O-])c1nc2ccccc2n1C` (centres unmarked) [[^18F]2], the “radioactivity concentration in brain at 10 min” value in data set [1] (10 min) is reported as “about 3.0 % of the injected dose”. Moreover, in data set [1] (27 min), the “radioactivity concentration in brain at 27 min” value is ~2.0 % of the injected dose. In addition, the “radioactivity concentration in brain at 90 min” value in data set [1] (90 min) is listed as ~1.3 % of the injected dose. In data set [1], the “peak uptake, whole brain” value is listed as 5.0–6.0 % i.D.

As to `Cc1c(OCCF)ccnc1C[S+]([O-])c1nc2ccccc2n1C` (centres unmarked) [11t, 2-(((4-(2-Fluoroethoxy)-3-methylpyridin-2-yl)methyl)sulfinyl)-1-methyl-1H-benzoimidazole], in data set [4], the “htau fibril binding result” value is recorded as “very high affinity”.

For `[18F]c1ccc(-c2ccc3c(c2)[nH]c2ccncc23)cn1` [[^18F]T807], the “affinity to monoamino oxidase A” value in data set [5] is “high affinity”.
